How the values were obtained:
[1] = system: CD19+CD24hiIgDlo/− B cells; test: Surface marker, PPARδ and Ki67 flow cytometry of B cell subpopulations in draining lymph nodes; type: in vivo, mouse
Protocol: For verifying this assumption, the experimental scheme of Example 4 was used. The mice of all groups were sacrificed at the 24th hour after the last injection of GSK3787 (i.e., the 72nd hour after the last FGK45.5 injection), and various surface marker analyses were conducted on the B cells isolated from lymph nodes of tumor-bearing mice to identify surface markers of B cell subpopulations having immunosuppressive effects and the effects of different treatments on B cell subpopulations having immunosuppressive effects.
At the 24th hour after the last GSK3787 injection, tumor draining lymph nodes of differently treated mice were sampled. The lymph nodes at the same body portion in natural, tumor-free mice were also sampled as the control group. The lymph nodes were ground into single-cell suspension. Cells from different lymph nodes were stained using various fluorescence labeling antibodies for flow cytometry assays.

[2] = system: B cells from draining lymph nodes; test: Inhibition of CFSE-labelled CD4+ T cell proliferation by B cells from draining lymph nodes of treated tumor-bearing mice; type: cell-based, mouse; settings: B cells:T cells 1:1, co-cultured 72 hours; FIG. 5a
Protocol: The next point was to verify whether the PPARδ inhibitor enhances immunotherapy through affecting B cells. First, the ability of B cells in draining lymph nodes of tumor-bearing mice treated differently to inhibit proliferation of activated T cells was examined in vitro. Purified C D4^+ T cells from normal mice were labelled using 2.5 μM CFSE in vitro. The CFSE-labelled cells were then resuspended in complete RPMI 1640 culture medium at 1×10^6/ml, and transferred into a 96-well plate that had been coated with 10 μg/ml anti-CD3ε antibody at 4° C. overnight. B cells purified from draining lymph nodes and the foregoing T cells (1:1) were co-cultured for 72 hours in the foregoing 96-well plate containing 1 μg/ml anti-CD28 mAb, and a flow cytometry assay was conducted. The cell proliferation rate of the CFSE-labelled T cells was calculated using the equation: (1-MFI value of CFSE of T Cells in Experimental Group/MFI value of CFSE of B-cell-free T Cells in Control Group)×100%. MFI refers to the mean fluorescence intensity.

[3] = system: B16 tumor; test: CD19+ B cell eradication experiment in B16 tumor-bearing mice, tumor growth; type: in vivo, mouse; settings: 250 μg anti-CD19 antibody (clone 1d3) intraperitoneal at day 6, 7 and 15; low-dose FGK45.5; FIG. 5b
Protocol: To some of the B16 tumor-bearing mice, the anti-CD19 antibody was used first to kill B cells, and then Rat IgG or FGK45.5 or FGK45.5 combined with the PPARδ inhibitor (GSK3787) was administered for treatment. Growth of the tumors was observed. Treatment with Rat IgG, FGK45.5, and FGK45.5 in combination with the PPARδ inhibitor were taken as control groups.
CD19^+ B cell Eradication Experiment: At the 6th day, 7th day, and 15th day after inoculation of B16 cells, 250 μg anti-CD19 antibody (clone 1d3) was administered to tumor-bearing mice through intraperitoneal injection, and the eradication rate of B cells as measured using FACS should be 90% or more.

[4] = system: MB49 cells (mouse bladder cancer cells); test: MB49 bladder cancer tumor-bearing mouse model, tumor growth; type: in vivo; settings: doses and regimens of FIG. 2a; FIG. 9
Source text: From the results above, we anticipate that the PPARδ inhibitor could also enhance therapeutic effects of immunotherapeutic drug on tumors in other tumor models. In order to verify such possibility, we examined the therapeutic effects of the PPARδ inhibitor in combination with FGK45.5 on MB49 bladder cancer cell tumor-bearing mice. C57BL/6 mice (8 to 10 weeks, n=5/group, 4 groups) are subcutaneously inoculated with 7×10^5 MB49 cells (mouse bladder cancer cells) and about 8 days after inoculation of tumor cells when tumors became touchable, Rat IgG, or FGK45.5, or PPARδ inhibitor (GSK3787), or FGK45.5 in combination with PPARδ inhibitor (GSK3787) was administered. Tumor growth condition was monitored.

[5] = system: CD19+CD24hiIgDlo/− B cells; test: Co-culture of sorted B cell subpopulations from treated mice with CFSE-labelled CD4+ T cells; type: cell-based, mouse; settings: B cells:T cells 1:1, 72 hours; FIG. 8a
Protocol: For evaluating the function-regulating effects on CD19^+CD24^hiIgD^lo/− B cells, the experimental scheme of Example 4 was employed. 24 hours after the last GSK3787 injection (i.e., 72 hours after the last FGK45.5 injection), mice of all groups were sacrificed. CD19^+CD24^hiIgD^lo/− B cell population and CD19^+CD24^loIgD^hiB cell population were isolated form draining lymph nodes of differently treated tumor-bearing mice using flow cytometry. Purified CD4^+ T cells from normal mice were labelled with 2.5 μM CFSE in vitro. The CFSE-labelled cells were resuspended in complete RPMI 1640 culture medium at 1×10^6/ml, and transferred into a 96-well plate coated with 10 μg/ml anti-CD3E antibody at 4° C. overnight. The B cells purified from draining lymph nodes and the foregoing T cells (1:1) were co-cultured for 72 hours in the foregoing 96-well plate containing 1 μg/ml anti-CD28 mAb for use in flow cytometry assays. The proliferation of the CFSE-labelled T cells was calculated using the equation: (1-MFI value of CFSE of T Cells in Experimental Group/MFI value of CFSE of B-cell-free T Cells in Control Group)[…].

[6] = system: lymphocytes in draining lymph nodes; test: Lymphocyte subpopulations in draining lymph nodes of B16 tumor-bearing mice (flow cytometry, cell counting); type: in vivo, mouse
Protocol: The C57BL/6 B16 tumor-bearing mouse model (mice subcutaneously inoculated with 7×10^5 B16 cells, 8 days after inoculation of tumor cells, mice with tumors touchable) of Example 1 was used. The experiment included the treatment group of low-dose FGK45.5, the treatment group of low-dose FGK45.5 in combination with the PPARδ inhibitor, the treatment group of using the PPARδ inhibitor solely, and the isotype control Rat IgG treatment group. 24 hours after the last injection of GSK3787 (i.e., 72 hours after the last FGK45.5 injection), the mice of all group were sacrificed. Cells at lymph nodes of mice from all groups were sampled for flow cytometry assays and cell counting.

[7] = system: B16 tumor cells (mouse melanoma cells); test: B16 melanoma tumor-bearing mouse model, tumor growth; type: in vivo; settings: low-dose FGK45.5 (75 μg in total); inhibitors intraperitoneal once a day Day 7 to Day 16; FIG. 2a
Protocol: We used a mouse B16 melanoma model extensively used in researches and having relatively high immunogenicity (C57BL/6 B16 Tumor-Bearing Mouse Model): C57BL/6 mice (8-10-week-old, n=5/group) were subcutaneously inoculated with 7×10^5 B16 tumor cells (mouse melanoma cells), and about 8 days after inoculation of tumor cells when tumors became touchable, anti-CD40 agonistic antibody was administered.
The mice were monitored every day, and tumors were measured with calipers every four days. The tumors were measured for length (a) and width (b), and tumor volume=ab^2/2.
Dosage regimen: These tumor-bearing mice were treated using low-dose 25 μg of FGK45.5 (mouse anti-CD40 agonistic antibody) for three times, 75 μg in total (at Day 8, Day 11, and Day 14) or high-dose 40 μg for 5 times, 200 μg in total (at Day 8, Day 11, Day 14, Day 17, and Day 20) or 40 μg with Isotype Control Rat IgG for 5 times (at Day 8, Day 11, Day 14, Day 17, and Day 20). Subcutaneous injection was made between the tumor and the draining lymph node at the groin. 72 hours after the last injection of each group, samples of mouse blood serum were tested for alanine transaminase (ALT, a known indicator of liver tissue injury).
The establishment of the B16 melanoma tumor-bearing mouse model and the dosage regimens of low-dose and high-dose FGK45.5 followed Example 1. […]

[8] = system: human CD19+CD24hiIgDlo/− B cells; test: Suppression of T cell IFNγ secretion by human CD19+CD24hiIgDlo/− B cells cultured with GSK3787; type: cell-based; settings: cultured 24 hours with GSK3787
Protocol: B cells were isolated and gathered from the peripheral blood of multiple normal blood donors or patients, and CD19^+CD24^hiIgD^lo/− B cells were isolated from the gathered B cells and cultured for 24 hours in complete RPMI 1640 culture medium with or without the PPARδ inhibitor GSK3787. Then these B cells were washed twice to remove the PPARδ inhibitor, resuspended in complete RPMI 1640 culture medium at 1×10^6/ml. CD4^+CD25^− T cells were isolated from blood of normal blood donors. The treated CD19^+CD24^hiIgD^lo/− B cells and these T cells (1:1) were co-cultured for 48 hours, Dynabeads were coated with anti-human CD3 mAb and anti-human CD28 mAb and placed on a 96-well U-shaped culture plate. Golgi^plug (BD Biosciences), PMA and ionomycin were added into the culture medium together for 6 hours. CD4^+ T cells were surface stained, perforated in the cytomembrane, and stained intracellularly using fluorescence labelled anti-human IFNγ, then analyzed using flow cytometry.

| SMILES | proportion of the CD19+CD24hiIgDlo/− B cell subpopulation in draining lymph nodes ([1]; B16 tumor-bearing mice, 24th hour after last GSK3787 injection, FIGS. 7a, b) | Ki67 expression of CD19+CD24hiIgDlo/− B cells ([1]; FIG. 7e, f) | inhibition of CD4 T cell proliferation by B cells from draining lymph nodes of treated tumor-bearing mice [2] | therapeutic effects on B16 tumors with B cells eradicated [3] | therapeutic effects on MB49 tumors, GSK3787 in combination with FGK45.5 [4] | therapeutic effects on MB49 tumors, used solely [4] | suppressive effects of CD19+CD24hiIgDlo/− B cells from draining lymph nodes of tumor-bearing mice on proliferation of activated CD4+ T cells [5] | proportions of CD4/CD19 cells in draining lymph nodes ([6]; FIG. 4c) | absolute count of CD45+ cells in draining lymph nodes ([6]; low-dose FGK45.5, 24 hours after last GSK3787 injection, FIG. 4a) | absolute count and proportion of CD11c+ cells in draining lymph nodes ([6]; low-dose FGK45.5, FIG. 4b) | cell counts of CD4+ T and CD8+ T cells and their proportions in CD45+ cells in draining lymph nodes ([6]; low-dose FGK45.5, FIG. 4b) | anti-tumor effects (speed of tumor growth) [7] | suppressive activity of human CD19+CD24hiIgDlo/− B cells (IFNγ secretion of activated T cells) ([8]; B cells of cancer patients (NSCLC)) | suppressive activity of human CD19+CD24hiIgDlo/− B cells (IFNγ secretion of activated T cells) ([8]; B cells of healthy subjects) |
| --- | --- | --- | --- | --- | --- | --- | --- | --- | --- | --- | --- | --- | --- | --- |
| O=C(NCCS(=O)(=O)c1ccc(C(F)(F)F)cn1)c1ccc(Cl)cc1 [GSK3787] | decreased significantly | reduced increase in Ki67 expression | decreased inhibition | lost its function of enhancing anti-tumor effects of FGK45.5 | could further improve the effect of FGK45.5 | no therapeutic effects | reduced suppressive effects | basically comparable | did not change | basically the same | consistent | almost no anti-tumor effects | significantly reduced | significantly reduced |
| O=C(Nc1ccncc1)c1cc([N+](=O)[O-])ccc1Cl [T0070907] |  |  |  |  |  |  |  |  |  |  |  | almost no anti-tumor effects |  |  |
